Test results: US7897592B2, “HIV integrase inhibitors” (priority 2005, dated 2011)

Target: T1, HIV-integrase (recombinant integrase) (Human immunodeficiency virus type 1 group M subtype B, UniProt P12497)
T1 construct: Recombinant integrase (0.26 ng) was incubated with the beads
Assay: HIV-Integrase Inhibition Activity (SPA bead strand-transfer assay)
Format: biochemical
Settings: biotin labeled substrate DNA on SPA beads, P33 labeled target DNA, read-out: Activity (IC50 against HIV-integrase)
Procedure: HIV-Integrase Inhibition Activity. To evaluate in-vitro activity against HIV-integrase, 5 pmole of biotin labeled substrate DNA was bound to 100 μg of Streptavidin coated PVT SPA beads (Amersham Pharmacia Biotech). Recombinant integrase (0.26 ng) was incubated with the beads for 90 min at 37° C. Unbound enzyme was removed by washing the complex followed by addition of inhibitors and 0.1 fmol of P33 labeled target DNA. The reaction was stopped by adding EDTA to a final concentration of 10 mM. Samples were counted in TopCountNXT (Packard) and the CPM was used as a measure of integration. The reaction condition was as described in A. Engelman and R. Craigie, J. Virol. 69, 5908-5911 (1995). The sequences of substrate and target DNA were described in Nucleic Acid Research 22, 1121-1122 (1994). Activity equal to A refers to a compound having IC50=0.002 to 0.10 μM while B and C denote compounds having IC50=0.1 to 1.0 μM and IC50≧1.0 μM respectively.

`O=C(NCc1ccc(F)cc1)c1nc2n(c(=O)c1O)CCCS(=O)(=O)C21CC1` [Example 24, Spiro[cyclopropane-1,10′(4′H)-[6H]pyrimido[2,1-c][1,4]thiazepine]-2′-carboxamide, N-[(4-fluorophenyl)methyl]-7′,8′-dihydro-3′-hydroxy-4′-oxo-, 9′,9′-dioxide] and `O=C(NCc1ccc(F)cc1)c1nc2n(c(=O)c1O)CCS(=O)(=O)C21CC1` [Example 8, Spiro[cyclopropane-1,9′(4′H)-pyrimido[2,1-c][1,4]thiazine]-2′-carboxamide, N-[(4-fluorophenyl)methyl]-6′,7′-dihydro-3′-hydroxy-4′-oxo-, 8′,8′-dioxide] fall in the same range of IC50: 2 to 100 nM for the first, 2 to 100 nM for the second.

`O=C(NCc1ccc(F)cc1)c1nc2n(c(=O)c1O)CCCSC2` [Example 19, N-(4-Fluorobenzyl)-3-hydroxy-4-oxo-6,7,8,10-tetrahydro-4H-pyrimido[2,1-c][1,4]thiazepine-2-carboxamide] and `O=C(NCc1ccc(F)cc1)c1nc2n(c(=O)c1O)CCSC2` [Example 1, N-(4-fluorobenzyl)-3-hydroxy-4-oxo-4,6,7,9-tetrahydropyrimido[2,1-c][1,4]thiazine-2-carboxamide] fall in the same range of IC50: 2 to 100 nM for the first, 2 to 100 nM for the second.

`Cc1ncn(-c2cc(F)ccc2CNC(=O)c2nc3n(c(=O)c2O)CCS(=O)(=O)C3(C)C)n1` [Example 6, Pyrimido[2,1-c][1,4]thiazine-2-carboxamide, N-[[4-fluoro-2-(3-methyl-1H-1,2,4-triazol-1-yl)phenyl]methyl]-4,6,7,9-tetrahydro-3-hydroxy-9,9-dimethyl-4-oxo-, 8,8-dioxide] and `Cc1ncn(-c2cc(F)ccc2CNC(=O)c2nc3n(c(=O)c2O)CCS(=O)(=O)C32CC2)n1` [Example 10, Spiro[cyclopropane-1,9′(4′H)-pyrimido[2,1-c][1,4]thiazine]-2′-carboxamide, N-[[4-fluoro-2-(3-methyl-1H-1,2,4-triazol-1-yl)phenyl]methyl]-6′,7′-dihydro-3′-hydroxy-4′-oxo-, 8′,8′-dioxide] fall in the same range of IC50: 2 to 100 nM for the first, 2 to 100 nM for the second.

`CC1SCCCn2c1nc(C(=O)NCc1ccc(F)cc1)c(O)c2=O` (centres unmarked) [Example 20, N-(4-Fluorobenzyl)-3-hydroxy-10-methyl-4-oxo-6,7,8,10-tetrahydro-4H-pyrimido[2,1-c][1,4]thiazepine-2-carboxamide] and `CC1c2nc(C(=O)NCc3ccc(F)cc3)c(O)c(=O)n2CCCS1(=O)=O` (centres unmarked) [Example 22, 6H-Pyrimido[2,1-c][1,4]thiazepine-2-carboxamide, N-[(4-fluorophenyl)methyl]-4,7,8,10-tetrahydro-3-hydroxy-10-methyl-4-oxo-, 9,9-dioxide] fall in the same range of IC50: 2 to 100 nM for the first, 2 to 100 nM for the second.

First: O=C(NCc1ccc(F)cc1)c1nc2n(c(=O)c1O)CCCS(=O)(=O)C2 [Example 21, 6H-Pyrimido[2,1-c][1,4]thiazepine-2-carboxamide, N-[(4-fluorophenyl)methyl]-4,7,8,10-tetrahydro-3-hydroxy-4-oxo-, 9,9-dioxide]
Second: O=C(NCc1ccc(F)cc1)c1nc2n(c(=O)c1O)CCS(=O)(=O)C2 [Example 2, Pyrimido[2,1-c][1,4]thiazine-2-carboxamide, N-[(4-fluorophenyl)methyl]-4,6,7,9-tetrahydro-3-hydroxy-4-oxo-, 8,8-dioxide]
The IC50 of the first is lower: 2 to 100 nM for the first, 100 to 1000 nM for the second.

`CC1(C)c2nc(C(=O)NCc3ccc(F)cc3)c(O)c(=O)n2CCS1(=O)=O` [Example 4, Pyrimido[2,1-c][1,4]thiazine-2-carboxamide, N-[(4-fluorophenyl)methyl]-4,6,7,9-tetrahydro-3-hydroxy-9,9-dimethyl-4-oxo-, 8,8-dioxide] and `CC1(C)c2nc(C(=O)NCc3ccc(F)cc3)c(O)c(=O)n2CCCS1(=O)=O` [Example 23, 6H-Pyrimido[2,1-c][1,4]thiazepine-2-carboxamide, N-[(4-fluorophenyl)methyl]-4,7,8,10-tetrahydro-3-hydroxy-10,10-dimethyl-4-oxo-, 9,9-dioxide] fall in the same range of IC50: 2 to 100 nM for the first, 2 to 100 nM for the second.

`Cc1ncnn1-c1cc(F)ccc1CNC(=O)c1nc2n(c(=O)c1O)CCCS(=O)(=O)C21CCOCC1` [Example 29, Spiro[4H-pyran-4,10′(4′H)-[6H]pyrimido[2,1-c][1,4]thiazepine]-2′-carboxamide, N-[[4-fluoro-2-(5-methyl-1H-1,2,4-triazol-1-yl)phenyl]methyl]-2,3,5,6,7′,8′-hexahydro-3′-hydroxy-4′-oxo-, 9′,9′-dioxide] and `Cc1ncnn1-c1cc(F)ccc1CNC(=O)c1nc2n(c(=O)c1O)CCS(=O)(=O)C21CCOCC1` [Example 18, Spiro[4H-pyran-4,9′(4′H)-pyrimido[2,1-c][1,4]thiazine]-2′-carboxamide, N-[[4-fluoro-2-(5-methyl-1H-1,2,4-triazol-1-yl)phenyl]methyl]-2,3,5,6,6′,7′-hexahydro-3′-hydroxy-4′-oxo-, 8′,8′-dioxide] fall in the same range of IC50: 2 to 100 nM for the first, 2 to 100 nM for the second.

`O=C(NCc1ccc(F)cc1)c1nc2n(c(=O)c1O)CCCS(=O)(=O)C21CCOCC1` [Example 26, Spiro[4H-pyran-4,10′(4′H)-[6H]pyrimido[2,1-c][1,4]thiazepine]-2′-carboxamide, N-[(4-fluorophenyl)methyl]-2,3,5,6,7′,8′-hexahydro-3′-hydroxy-4′-oxo-, 9′,9′-dioxide] and `O=C(NCc1ccc(F)cc1)c1nc2n(c(=O)c1O)CCS(=O)(=O)C21CCOCC1` [Example 16, Spiro[4H-pyran-4,9′(4′H)-pyrimido[2,1-c][1,4]thiazine]-2′-carboxamide, N-[(4-fluorophenyl)methyl]-2,3,5,6,6′,7′-hexahydro-3′-hydroxy-4′-oxo-, 8′,8′-dioxide] fall in the same range of IC50: 2 to 100 nM for the first, 2 to 100 nM for the second.

`Cc1cc(CNC(=O)c2nc3n(c(=O)c2O)CCCS(=O)(=O)C32CCOCC2)ccc1F` [Example 27, Spiro[4H-pyran-4,10′(4′H)-[6H]pyrimido[2,1-c][1,4]thiazepine]-2′-carboxamide, N-[(4-fluoro-3-methylphenyl)methyl]-2,3,5,6,7′,8′-hexahydro-3′-hydroxy-4′-oxo-, 9′,9′-dioxide] and `O=C(NCc1ccc(F)cc1-n1cncn1)c1nc2n(c(=O)c1O)CCCS(=O)(=O)C21CCOCC1` [Example 28, Spiro[4H-pyran-4,10′(4′H)-[6H]pyrimido[2,1-c][1,4]thiazepine]-2′-carboxamide, N-[[4-fluoro-2-(1H-1,2,4-triazol-1-yl)phenyl]methyl]-2,3,5,6,7′,8′-hexahydro-3′-hydroxy-4′-oxo-, 9′,9′-dioxide] fall in the same range of IC50: 2 to 100 nM for the first, 2 to 100 nM for the second.

`CC1(C)c2nc(C(=O)NCc3ccc(F)cc3-n3cncn3)c(O)c(=O)n2CCS1(=O)=O` [Example 5, Pyrimido[2,1-c][1,4]thiazine-2-carboxamide, N-[[4-fluoro-2-(1H-1,2,4-triazol-1-yl)phenyl]methyl]-4,6,7,9-tetrahydro-3-hydroxy-9,9-dimethyl-4-oxo-, 8,8-dioxide] and `O=C(NCc1ccc(F)cc1-n1cncn1)c1nc2n(c(=O)c1O)CCS(=O)(=O)C21CC1` [Example 9, Spiro[cyclopropane-1,9′(4′H)-pyrimido[2,1-c][1,4]thiazine]-2′-carboxamide, N-[[4-fluoro-2-(1H-1,2,4-triazol-1-yl)phenyl]methyl]-6′,7′-dihydro-3′-hydroxy-4′-oxo-, 8′,8′-dioxide] fall in the same range of IC50: 2 to 100 nM for the first, 2 to 100 nM for the second.

`O=C(NCc1ccc(F)cc1-n1cncn1)c1nc2n(c(=O)c1O)CCS(=O)(=O)C21CCCC1` [Example 13, Spiro[cyclopentane-1,9′(4′H)-pyrimido[2,1-c][1,4]thiazine]-2′-carboxamide, N-[[4-fluoro-2-(1H-1,2,4-triazol-1-yl)phenyl]methyl]-6′,7′-dihydro-3′-hydroxy-4′-oxo-, 8′,8′-dioxide] and `Cc1ncn(-c2cc(F)ccc2CNC(=O)c2nc3n(c(=O)c2O)CCS(=O)(=O)C32CCCC2)n1` [Example 14, Spiro[cyclopentane-1,9′(4′H)-pyrimido[2,1-c][1,4]thiazine]-2′-carboxamide, N-[[4-fluoro-2-(3-methyl-1H-1,2,4-triazol-1-yl)phenyl]methyl]-6′,7′-dihydro-3′-hydroxy-4′-oxo-, 8′,8′-dioxide] fall in the same range of IC50: 2 to 100 nM for the first, 2 to 100 nM for the second.

`Cc1ncnn1-c1cc(F)ccc1CNC(=O)c1nc2n(c(=O)c1O)CCS(=O)(=O)C2(C)C` [Example 7, Pyrimido[2,1-c][1,4]thiazine-2-carboxamide, N-[[4-fluoro-2-(5-methyl-1H-1,2,4-triazol-1-yl)phenyl]methyl]-4,6,7,9-tetrahydro-3-hydroxy-9,9-dimethyl-4-oxo-8,8-dioxide] and `Cc1ncnn1-c1cc(F)ccc1CNC(=O)c1nc2n(c(=O)c1O)CCS(=O)(=O)C21CC1` [Example 11, Spiro[cyclopropane-1,9′(4′H)-pyrimido[2,1-c][1,4]thiazine]-2′-carboxamide, N-[[4-fluoro-2-(5-methyl-1H-1,2,4-triazol-1-yl)phenyl]methyl]-6′,7′-dihydro-3′-hydroxy-4′-oxo-, 8′,8′-dioxide] fall in the same range of IC50: 2 to 100 nM for the first, 2 to 100 nM for the second.

`CC1c2nc(C(=O)NCc3ccc(F)cc3)c(O)c(=O)n2CCS1(=O)=O` (centres unmarked) [Example 3, Pyrimido[2,1-c][1,4]thiazine-2-carboxamide, N-[(4-fluorophenyl)methyl]-4,6,7,9-tetrahydro-3-hydroxy-9-methyl-4-oxo-, 8,8-dioxide] and `Cc1ncnn1-c1cc(F)ccc1CNC(=O)c1nc2n(c(=O)c1O)CCS(=O)(=O)C21CCCC1` [Example 15, Spiro[cyclopentane-1,9′(4′H)-pyrimido[2,1-c][1,4]thiazine]-2′-carboxamide, N-[[4-fluoro-2-(5-methyl-1H-1,2,4-triazol-1-yl)phenyl]methyl]-6′,7′-dihydro-3′-hydroxy-4′-oxo-, 8′,8′-dioxide] fall in the same range of IC50: 2 to 100 nM for the first, 2 to 100 nM for the second.
